Assays:
Assay type in all cases: in vivo
[1] = tested on: green peach aphid (Myzus persicae); assay: Insecticidal test for green peach aphid in foliar spray assay; details: 72 h, 200 ppm foliar spray on cabbage seedlings, graded after three days, Abbott corrected % control, read-out: Mortality GPA 200 ppm
Method: Cabbage seedlings grown in 3-inch pots, with 2-3 small (3-5 cm) true leaves, were used as test substrate. The seedlings were infested with 20-50 green peach aphids (wingless adult and nymph) one day prior to chemical application. Four pots with individual seedlings were used for each treatment. Compounds (2 mg) were dissolved in 2 mL of acetone/methanol (1:1) solvent, forming stock solutions of 1000 ppm. The stock solutions were diluted 5× with 0.025% Tween 20 in H2O to obtain the test solution at 200 ppm. A hand-held Devilbiss sprayer was used for spraying a solution to both sides of cabbage leaves until runoff. Reference plants (solvent check) were sprayed with the diluent only. Treated plants were held in a holding room for three days at approximately 25° C. and 40% relative humidity (RH) prior to grading. Evaluation was conducted by counting the number of live aphids per plant under a microscope. Insecticidal activity data, measured by using Abbott's correction formula, are presented in Table 2: Corrected % Control=100*(X−Y)/X • where X=No. of live aphids on solvent check plants • Y=No. of live aphids on treated plants

[2] = tested on: beet armyworm (BAW; Spodoptera exigua); assay: Insecticidal test for beet armyworm, 128-well diet tray assay; details: 144 h, 50 μg/cm2 on artificial diet, second instar larvae, six days at 25° C.
Method: (§1) Bioassays on beet armyworm (BAW; Spodoptera exigua: Lepidoptera) were conducted using a 128-well diet tray assay. Three to five second instar BAW larvae were placed in each well (3 mL) of the diet tray that had been previously filled with 1 mL of artificial diet to which 50 μg/cm^2 of the test compound (dissolved in 50 μL of 90:10 acetone-water mixture) had been applied (to each of eight wells) and then allowed to dry. Trays were covered with a clear self-adhesive cover, and held at 25° C., 14:10 light-dark for six days. Percent mortality was recorded for the larvae in each well; activity in the eight wells was then averaged.

[3] = tested on: corn earworm (CEW; Helicoverpa zea); assay: Insecticidal test for corn earworm, 128-well diet tray assay; details: 144 h, 50 μg/cm2 on artificial diet, second instar larvae, six days at 25° C.
Method: as §1, with “corn earworm (CEW; Helicoverpa zea:” for “beet armyworm (BAW; Spodoptera exigua:”, “CEW” for “BAW”

Row | SMILES | mortality at 200 ppm [1] | mortality at 50 µg/cm2 [2] | mortality at 50 µg/cm2 [3]
1 | O=C(N/N=C/c1ccc(-c2ncn(-c3ccc(OC(F)(F)F)cc3)n2)cc1)Nc1c(Cl)cccc1Cl [Compound 120] | < 80% | 50 to 100% | 50 to 100%
2 | COc1cc(C)c(NC(=S)N/N=C/c2ccc(-c3ncn(-c4ccc(C(F)(F)F)cc4)n3)cc2)c(C)c1 [Compound 127] | < 80% | 50 to 100% | 50 to 100%
3 | FC(F)(F)Oc1ccc(-n2cnc(-c3ccc(/C=N/NC(=S)Nc4ccccc4Cl)cc3)n2)cc1 [Compound 54] | < 80% | < 50% | < 50%
4 | COc1ccc(NC(=S)N/N=C/c2ccc(-c3ncn(-c4ccc(OC(F)(F)F)cc4)n3)cc2)c(F)c1 [Compound 50] | < 80% | 50 to 100% | 50 to 100%
5 | CN(C)S(=O)(=O)c1ccccc1NC(=S)N/N=C/c1ccc(-c2ncn(-c3ccc(OC(F)(F)F)cc3)n2)cc1 [Compound 77] | < 80% | 50 to 100% | 50 to 100%
6 | Cc1cccc(C)c1NC(=S)N/N=C/c1ccc(-c2ncn(-c3ccc(OC(F)(F)F)cc3)n2)cc1 [Compound 78] | < 80% | 50 to 100% | 50 to 100%
7 | FC(F)(F)Oc1ccc(-n2cnc(-c3ccc(/C=N/NC(=S)NC4CCCCC4)cc3)n2)cc1 [Compound 25] | < 80% | 50 to 100% | 50 to 100%
8 | COC(=O)C1CC(c2ccc(/C=N/NC(=S)Nc3c(C)cc(OC)cc3C)cc2)=NN1c1ccc(OC(F)(F)F)cc1 (stereo not drawn) [Compound 132] | < 80% | 50 to 100% | 50 to 100%
9 | COc1cc(C)cc(C)c1NC(=S)N/N=C/c1ccc(-c2ncn(-c3ccc(OC(F)(F)F)cc3)n2)cc1 [Compound 103] | – | 50 to 100% | 50 to 100%
10 | CCCN(/N=C/c1ccc(-c2ncn(-c3ccc(OC(F)(F)F)cc3)n2)cc1)C(=S)Nc1ccc(OC)cc1C [Compound 87] | – | < 50% | < 50%
11 | Cc1cccc(C)c1NC(=S)N/N=C/c1ccc(-c2ccn(-c3ccc(OC(F)(F)F)cc3)c2)cc1 [Compound 134] | – | 50 to 100% | 50 to 100%
12 | COC(=O)C1CC(c2ccc(/C=N/NC(=S)Nc3c(C)cccc3C)cc2)=NN1c1ccc(OC(F)(F)F)cc1 (stereo not drawn) [Compound 130] | – | 50 to 100% | 50 to 100%
13 | COc1ccc([C@@H](C)NC(=S)N/N=C/c2ccc(-c3ncn(-c4ccc(OC(F)(F)F)cc4)n3)cc2)cc1 [Compound 142] | – | 50 to 100% | 50 to 100%
14 | FC(F)(F)Oc1ccc(N2CCC(c3ccc(/C=N/NC(=S)Nc4c(Cl)cccc4Cl)cc3)=N2)cc1 [Compound 141] | – | 50 to 100% | 50 to 100%
15 | FC(F)(F)Oc1ccc(-n2cnc(-c3ccc(/C=N/NC(=S)Nc4ncc(Cl)cc4Cl)cc3)n2)cc1 [Compound 113] | – | < 50% | < 50%
16 | Cc1ccnc(C)c1NC(=S)N/N=C/c1ccc(-c2ncn(-c3ccc(OC(F)(F)F)cc3)n2)cc1 [Compound 102] | – | 50 to 100% | 50 to 100%
17 | Cc1cc(C)c(NC(=S)N/N=C/c2ccc(-c3ncn(-c4ccc(OC(F)(F)F)cc4)n3)cc2)c(Cl)c1 [Compound 104] | – | 50 to 100% | 50 to 100%
18 | CC(C)c1ccccc1NC(=S)N/N=C/c1ccc(-c2ncn(-c3ccc(OC(F)(F)F)cc3)n2)cc1 [Compound 80] | – | 50 to 100% | 50 to 100%
19 | CC(NC(=S)N/N=C/c1ccc(-c2ncn(-c3ccc(OC(F)(F)F)cc3)n2)cc1)c1cccnc1 (stereo not drawn) [Compound 158] | – | 50 to 100% | 50 to 100%

Row | SMILES | mortality at 200 ppm [1] | mortality at 50 µg/cm2 [2] | mortality at 50 µg/cm2 [3]
20 | Cc1cc(F)cc(C)c1NC(=S)N/N=C/c1ccc(-c2ncn(-c3ccc(OC(F)(F)F)cc3)n2)cc1 [Compound 112] | – | 50 to 100% | 50 to 100%
21 | Cc1cccc(C)c1NC(=S)N/N=C/c1ccc(C2=NN(c3ccc(OC(F)(F)F)cc3)CC2)cc1 [Compound 140] | – | 50 to 100% | 50 to 100%
22 | COc1ccc(C(C)NC(=S)N/N=C/c2ccc(-c3ncn(-c4ccc(OC(F)(F)F)cc4)n3)cc2)cc1C (stereo not drawn) [Compound 149] | – | 50 to 100% | 50 to 100%
23 | Cc1ccccc1C(C)NC(=S)N/N=C/c1ccc(-c2ncn(-c3ccc(OC(F)(F)F)cc3)n2)cc1 (stereo not drawn) [Compound 147] | – | 50 to 100% | 50 to 100%
24 | COc1ccc(C(C)NC(=S)N/N=C/c2ccc(-c3ncn(-c4ccc(OC(F)(F)F)cc4)n3)cc2)cc1OC (stereo not drawn) [Compound 151] | – | 50 to 100% | 50 to 100%
25 | COc1cccc(NC(=S)N/N=C/c2ccc(-c3ncn(-c4ccc(OC(F)(F)F)cc4)n3)cc2)c1C [Compound 90] | – | 50 to 100% | 50 to 100%
26 | FC(F)(F)Oc1ccc(-n2ccc(-c3ccc(/C=N/NC(=S)Nc4c(Cl)cccc4Cl)cc3)n2)cc1 [Compound 137] | – | 50 to 100% | 50 to 100%
27 | COc1ccc(NC(=S)N(C)/N=C/c2ccc(-c3ncn(-c4ccc(OC(F)(F)F)cc4)n3)cc2)c(C)c1 [Compound 85] | – | 50 to 100% | 50 to 100%
28 | Cc1cc(C)c(NC(=S)N/N=C/c2ccc(-c3ncn(-c4ccc(OC(F)(F)C(F)(F)F)cc4)n3)cc2)c(C)c1 [Compound 123] | – | 50 to 100% | 50 to 100%
29 | CCCCc1ccc(-n2cnc(-c3ccc(/C=N/NC(=S)Nc4c(C)cc(OC)cc4C)cc3)n2)cc1 [Compound 124] | – | 50 to 100% | 50 to 100%
30 | COc1cc(Cl)c(NC(=S)N/N=C/c2ccc(-c3ncn(-c4ccc(OC(F)(F)F)cc4)n3)cc2)c(Cl)c1 [Compound 115] | – | 50 to 100% | 50 to 100%
31 | FC(F)(F)Oc1ccc(-n2ccc(-c3ccc(/C=N/NC(=S)Nc4c(Cl)cccc4Cl)cc3)c2)cc1 [Compound 135] | – | 50 to 100% | 50 to 100%
32 | Cc1ccc(NC(=S)N/N=C/c2ccc(-c3ncn(-c4ccc(OC(F)(F)F)cc4)n3)cc2)cc1 [Compound 92] | – | 50 to 100% | 50 to 100%
33 | COc1ccc(NC(=S)N/N=C/c2ccc(-c3ncn(-c4ccc(OC(F)(F)F)cc4)n3)cc2)c(C(C)C)c1 [Compound 121] | – | 50 to 100% | 50 to 100%
34 | COc1cccc(C(C)NC(=S)N/N=C/c2ccc(-c3ncn(-c4ccc(OC(F)(F)F)cc4)n3)cc2)c1 (stereo not drawn) [Compound 153] | – | 50 to 100% | 50 to 100%
35 | Cc1ccc(Cl)c(C)c1NC(=S)N/N=C/c1ccc(-c2ncn(-c3ccc(OC(F)(F)F)cc3)n2)cc1 [Compound 101] | – | 50 to 100% | 50 to 100%
36 | Fc1cc(F)c(NC(=S)N/N=C/c2ccc(-c3ncn(-c4ccc(OC(F)(F)F)cc4)n3)cc2)c(F)c1 [Compound 98] | – | 50 to 100% | 50 to 100%
37 | Cc1ccc(NC(=S)N/N=C/c2ccc(-c3ncn(-c4ccc(OC(F)(F)F)cc4)n3)cc2)c(C)c1 [Compound 95] | – | 50 to 100% | 50 to 100%
38 | COc1cccc(NC(=S)N/N=C/c2ccc(-c3ncn(-c4ccc(OC(F)(F)F)cc4)n3)cc2)c1 [Compound 94] | – | 50 to 100% | 50 to 100%
